In experiment [1] the test system is Plasmodium falciparum. Briefly: Increase in PfCRT expression in chloroquine-sensitive Plasmodium falciparum K1AM by Western blot relative to untreated control. The format is functional, organism-based.
For experiment [2], the system named is Plasmodium falciparum. The experiment can be described thus: Increase in PfCRT expression in chloroquine-resistant Plasmodium falciparum R1H6/2 by Western blot relative to untreated control. The format is functional, organism-based.
The test system of experiment [3] is Plasmodium falciparum. Briefly: Increase in Pgh1 expression in chloroquine-sensitive Plasmodium falciparum K1AM by Western blot relative to untreated control. The format is functional.
Experiment [4] concerns Plasmodium falciparum. The experiment can be described thus: Increase in Pgh1 expression chloroquine-sensitive Plasmodium falciparum K1Hf by Western blot relative to untreated control. The format is functional.
Experiment [5] concerns Plasmodium falciparum. Briefly: Increase in PfCRT expression chloroquine-sensitive Plasmodium falciparum K1Hf by Western blot relative to untreated control. The format is functional, organism-based.
The test system of experiment [6] is Plasmodium falciparum. The experiment can be described thus: Increase in Pgh1 expression in chloroquine-resistant Plasmodium falciparum R1H6/2 by Western blot relative to untreated control. The format is functional.

Calls of active or inactive are those of the source. The rule behind the calls is not given here.

For `CCC1(c2ccccc2)C(=O)NC(=O)NC1=O` [PHENOBARBITAL], the result in experiment [1], in experiment [2] and in experiment [5] was inactive. The results for the “fold change (FC)” value in experiment [3], in experiment [4] and in experiment [6] were 4.7, 5.4 and 6.4, respectively.
